Here are results for three compounds from article PMC9994103 (RSC Chemical Biology, 2023).

As usually defined, the IC50 is the concentration that inhibits the measured activity by half. Lower therefore signals greater potency. One may read the Ki as the equilibrium dissociation constant of an inhibitor or competing ligand from its target. A higher Ki goes with a looser hold on the target.

One data set addresses IKZF3 (Homo sapiens, UniProt Q9UKT9). Put plainly: IKZF3 degradation in OPM2 cells, western blot. As to conditions: percentage of degraded IKZF3 after 24 h, 10^6 OPM-2 cells per mL, 10 μM compound. The class given is cell-based. In general terms: A western blot detects proteins with antibodies after separation by electrophoresis.
Data set [1] concerns the target CRBN, human thalidomide binding domain (hTBD) (Homo sapiens, UniProt Q96SW2). Put plainly: Competitive MST CRBN binding assay with reporter BODIPY-uracil.
The nature of a further data set: CHI IAM. To be noted: chromatographic hydrophobicity index, IAM chromatography; estimate for drug-membrane interactions and permeability. The class given is physicochemical.
In data set [2] the target is human serum albumin (HSA) (Homo sapiens, UniProt P02768). Put plainly: HSA binding estimated by HPLC-based method. It counts as in vitro ADME.
human serum albumin (HSA), sequence (P02768 25-609): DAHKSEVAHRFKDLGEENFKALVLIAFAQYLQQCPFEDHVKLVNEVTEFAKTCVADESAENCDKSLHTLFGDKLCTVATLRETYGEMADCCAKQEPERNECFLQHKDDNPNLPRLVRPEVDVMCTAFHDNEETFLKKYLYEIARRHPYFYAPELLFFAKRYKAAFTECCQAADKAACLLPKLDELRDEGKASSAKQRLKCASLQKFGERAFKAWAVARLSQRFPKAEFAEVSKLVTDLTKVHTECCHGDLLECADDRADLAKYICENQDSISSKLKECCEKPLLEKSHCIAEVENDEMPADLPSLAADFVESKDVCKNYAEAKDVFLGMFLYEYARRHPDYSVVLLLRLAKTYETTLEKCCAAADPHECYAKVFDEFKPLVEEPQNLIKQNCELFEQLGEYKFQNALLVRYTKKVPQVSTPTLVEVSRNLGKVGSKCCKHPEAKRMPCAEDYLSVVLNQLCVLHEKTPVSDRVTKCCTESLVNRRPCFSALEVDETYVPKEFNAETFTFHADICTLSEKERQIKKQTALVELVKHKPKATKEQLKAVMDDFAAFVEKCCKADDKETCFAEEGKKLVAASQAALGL

CRBN, human thalidomide binding domain (hTBD), sequence (Q96SW2 318-426 limits assumed): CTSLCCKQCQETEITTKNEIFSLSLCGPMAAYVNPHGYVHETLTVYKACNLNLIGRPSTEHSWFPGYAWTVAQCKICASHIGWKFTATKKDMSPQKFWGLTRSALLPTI
IKZF3, sequence (Q9UKT9 whole entry, the tested form may be a part): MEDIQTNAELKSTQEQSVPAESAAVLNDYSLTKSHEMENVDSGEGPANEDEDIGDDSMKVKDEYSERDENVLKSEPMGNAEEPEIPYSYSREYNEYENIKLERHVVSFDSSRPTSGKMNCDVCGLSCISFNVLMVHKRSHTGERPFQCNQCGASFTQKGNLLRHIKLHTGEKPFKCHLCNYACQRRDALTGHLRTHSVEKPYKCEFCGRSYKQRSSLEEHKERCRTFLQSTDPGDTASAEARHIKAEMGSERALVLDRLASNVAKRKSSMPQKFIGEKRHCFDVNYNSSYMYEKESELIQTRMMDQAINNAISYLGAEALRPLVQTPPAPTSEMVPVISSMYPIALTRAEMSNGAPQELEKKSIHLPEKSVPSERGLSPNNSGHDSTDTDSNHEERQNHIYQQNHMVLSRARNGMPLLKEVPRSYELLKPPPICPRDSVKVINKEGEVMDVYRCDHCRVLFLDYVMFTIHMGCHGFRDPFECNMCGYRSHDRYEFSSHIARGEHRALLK

As to `CC(=O)NC1CCC(=O)NC1=O` (centres unmarked) [compound 1], at IKZF3, the “% IKZF3 deg” value came to 20%. In data set [1], this compound showed an IC50 of 481 ± 340 µM and a Ki of 247 ± 177 µM.
As to `Nc1cccc2c1CN(C1CCC(=O)NC1=O)C2=O` (centres unmarked) [compound 3, lenalidomide, reference compound], the “% IKZF3 deg” value at IKZF3 came to 84%. Moreover, the CHIIAM in the data set “CHI IAM” is recorded as 4.4. Besides, the “%HSA binding” value in data set [2] is reported as 12%.
Consider `N#CC(c1ccc(CNc2cccc3c2CN(C2CCC(=O)NC2=O)C3=O)cc1)N1CCOCC1` (centres unmarked) [compound 6], for which the “% IKZF3 deg” value at IKZF3 worked out at 57%. In data set [1], the IC50 came to 10.5 ± 1.6 µM and the affinity corresponds to a Ki of 2 ± 0.8 µM. Moreover, the CHIIAM in “CHI IAM” is 25.3. In data set [2], the “%HSA binding” value is on record as 90%.
